Reference: article PMC8619914, “Development of Novel Peptides for the Antimicrobial Combination Therapy against Carbapenem-Resistant Acinetobacter baumannii Infection” (Pharmaceutics, 2021)

Tests used:
[1] = system: Acinetobacter baumannii (KCCM 40203); test: microbe, parasite or virus in culture; conditions: 16 h
From the text: (§1) The Gram-negative bacterial strain Escherichia coli (KCTC 1682) and Gram-positive bacterial strain Staphylococcus aureus (KCTC 1621) were purchased from the Korean Collection for Type Cultures (Jeongeup, Korea). Acinetobacter baumannii (KCCM 40203) were purchased from Korea Culture Center of Microorganisms (Seoul, Korea). Additionally, five carbapenem-resistant Acinetobacter baumanii C1–C5 (CRAB C1–C5), which have the OXA-23 gene with carbapenem-resistance were collected from the patients with CRAB bacteremia, who presented symptoms and signs of infection at Korea University Anam Hospital (Seoul, Korea) (IRB registration no. 2020AN0157). The minimum inhibitory concentrations (MIC) of the AMP and antibiotics against the various bacterial strains were assessed using the serial dilution method on Muller–Hinton (MH) media, as described previously. […] Absorbance at 600 nm was measured using a SpectraMAX microplate reader (Molecular Devices, San Jose, CA, USA).
(§2) Measurement of the minimum inhibitory concentrations (MIC) was conducted to determine the effect of the hydrophobicity of each antimicrobial peptide on its antimicrobial activity. MIC was defined as the minimum concentration that killed more than 99% of bacteria; it was measured against two standard Gram-negative bacteria (E. coli and A. baumanii), five clinically isolated CRAB (C1–C5), and one Gram-positive bacteria (S. aureus).

CRAB C1 [2] = test: microbe, parasite or virus in culture; conditions: 16 h
From the text: as §1, §2

CRAB C2 = test: microbe, parasite or virus in culture; conditions: MH media, 2 × 10^5 CFU·mL^−1, 37 °C, 16 h, absorbance 600 nm
From the text: as §1, §2

CRAB C3 = test: microbe, parasite or virus in culture; conditions: MH media, 2 × 10^5 CFU·mL^−1, 37 °C, 16 h, absorbance 600 nm
From the text: as §1, §2

CRAB C4 = test: microbe, parasite or virus in culture; conditions: MH media, 2 × 10^5 CFU·mL^−1, 37 °C, 16 h, absorbance 600 nm
From the text: as §1, §2

CRAB C5 = test: microbe, parasite or virus in culture; conditions: MH media, 2 × 10^5 CFU·mL^−1, 37 °C, 16 h, absorbance 600 nm
From the text: as §1, §2

[3] = system: Gram-negative bacterial strains; test: organism not typed
From the text: as §1
Geometric means (GM) were calculated to compare the relative antimicrobial activities of the analogs against Gram-negative bacteria. […] Next, the antibacterial mechanisms of peptides were investigated.

intact CRAB C1 = test: Membrane depolarization, diSC3-5, intact cells; assay type: cell-based, carbapenem-resistant Acinetobacter baumannii; conditions: peptide 4 μg·mL^−1, 100% = 1% triton X-100
Procedure: The membrane depolarization activity of each AMPs at varying concentrations (1–16 μg·mL^−^1) against CRAB C1 intact cells were measured using 3,3′-dipropylthiadicarbocyanine iodide (diSC3-5). CRAB C1 was washed two times in washing buffer (5 mM HEPES, 20 mM glucose, pH 7.4), the experiment buffer was changed (5 mM HEPES, 20 mM glucose, 0.1 M KCl, pH 7.4), and diSC3-5 dye was added. As a control, 100% depolarization was obtained by treating CRAB C1 with 1% triton X-100 [33]. Spheroplast cells were prepared by the osmotic shock, as previously described. […] The corresponding fluorescent were measured using RF-6000PC fluorescent spectrophotometer (Shimadzu Scientific Instruments, Kyoto, Japan).
Figure 3 CRAB C1 membrane destruction caused by PapMA analogs. The concentration dependent depolarization of (A) intact CRAB C1 and its (B) spheroplast induced by PapMA and its analogs, determined using the membrane potential-sensitive fluorescent dye diSC3-5. Dye release was monitored by measuring fluorescence, at an excitation wavelength of 654 nm and an emission wavelength of 670 nm.

HEK-293 cells = test: Cytotoxicity, WST-8 Cell Proliferation Assay; assay type: cell-based, human; conditions: at its MIC, 24 h and 48 h
Procedure: (§3) Human embryonic kidney (HEK)-293 cells, purchased from Korean cell line bank (Seoul, Korea) were cultured in Dulbecco’s modified Eagle’s medium (DMEM) (Welgene, Gyeong-san, Korea) with 10% fetal bovine serum, 1% penicillin-streptomycin at 37 °C in a humidified 5% CO2 incubator as described previously. The cytotoxicity of the six PapMA peptides and melittin was determined using WST-8 Cell Proliferation Assay Kit (Biomax Co, Ltd., Seoul, Korea), according to the manufacturer’s instructions. […] The absorbance was measured at 450 nm using a SpectraMAX microplate reader (Molecular Devices).
Figure 4 Cytotoxicity of PapMA analogs. (A) Cytotoxicity of PapMA and its analogs against HEK-293 cell. […] (B) Hemolysis activity of PapMA analogs against sRBC. The peptide was serially diluted and incubated with sRBC for 1 h with melittin as a control. Statistical analysis was performed using two-way ANOVA with Dunnett’s comparison test. The values are expressed as the mean ± SEM of three independent experiments and are statistically significant at ** p < 0.01; and *** p < 0.001. ns, not significant.

HaCaT cells = test: Cytotoxicity, WST-8 Cell Proliferation Assay; assay type: cell-based, human; conditions: at its MIC, 24 h and 48 h
Procedure: as §3
Figure 10 Cytotoxicity of PapMA-3 (A) Cytotoxicity of PapMA-3 against HEK-293 cells at 24 h and 48 h. (B) Cytotoxicity of PapMA-3 against HaCaT cell at 24 h and 48 h. Statistical analysis was performed using two-way ANOVA with Dunnett’s comparison test. The values are expressed as the mean ± SEM of three independent experiments and are statistically significant at * p < 0.05; *** p < 0.001; ns, not significant.

A. baumannii = conditions: 50% human serum in MH medium, 16 h, 37 °C; measure of serum stability
Procedure: (§4) Antibacterial activity of PapMA-3 in combination with imipenem was measured against CRAB C1 in the presence of 50% human serum. The treated cells were incubated for 16 h at 37 °C, and the absorbance at 600 nm was measured using a SpectraMAX microplate reader (Molecular Devices).

CRAB C1 [4] = system: CRAB C1
Procedure: as §4

[5] = MH media, 2 × 10^5 CFU·mL^−1, 37 °C, absorbance 600 nm

Q: What does the source list for `CC[C@H](C)[C@H](NC(=O)CN)C(=O)NCC(=O)N[C@@H](C)C(=O)N[C@H](C(=O)N[C@@H](CC(C)C)C(=O)N[C@@H](CCCCN)C(=O)N[C@H](C(=O)N[C@@H](CC(C)C)C(=O)N[C@H](C(=O)N[C@H](C(=O)NCC(=O)N[C@@H](CC(C)C)C(=O)N1CCC[C@H]1C(=O)N[C@@H](C)C(=O)N[C@@H](CC(C)C)C(=O)N[C@H](C(=O)N[C@@H](CO)C(=O)N[C@@H](Cc1c[nH]c2ccccc12)C(=O)N[C@H](C(=O)N[C@@H](CCCCN)C(=O)N[C@@H](CCCNC(=N)N)C(=O)N[C@@H](CCCCN)C(=O)N[C@@H](CCCNC(=N)N)C(=O)N[C@@H](CCC(N)=O)C(=O)N[C@@H](CCC(N)=O)C(N)=O)[C@@H](C)CC)[C@@H](C)CC)[C@@H](C)O)[C@@H](C)O)C(C)C)C(C)C` [melittin]?
A: Minimum Inhibitory Concentration, A. baumannii, MH Media ([1]; MH media without serum, 37 °C): 16 µg/mL; Minimum Inhibitory Concentration, A. baumanii [1, 5]: 16 µg/mL; Minimum Inhibitory Concentration, CRAB C1, MH Media (CRAB C1 [2]; MH media without serum, 37 °C): 16 µg/mL; Minimum Inhibitory Concentration, CRAB C1 (CRAB C1 [2]; [5]): 16 µg/mL; Minimum Inhibitory Concentration, CRAB C2 (CRAB C2): 16 µg/mL; Minimum Inhibitory Concentration, CRAB C3 (CRAB C3): 16 µg/mL; Minimum Inhibitory Concentration, CRAB C4 (CRAB C4): 8 µg/mL; Minimum Inhibitory Concentration, CRAB C5 (CRAB C5): 16 µg/mL; GM (mean MIC of Gram-negative bacterial strains) [3]: 14 µg/mL; depolarization of intact CRAB C1 (intact CRAB C1): 86.4%; toxicity, HEK-293 (HEK-293 cells): severe toxicity; toxicity, HaCaT (HaCaT cells): severe toxicity; Minimum Inhibitory Concentration, A. baumannii, + Serum (50%) (A. baumannii): 128 µg/mL; change of antibacterial activity in the presence of 50% human serum (CRAB C1 [4]; 50% human serum in MH media versus MH media, E. coli, A. baumannii, CRAB C1): lost antibacterial activity considerably; Minimum Inhibitory Concentration, CRAB C1, + Serum (50%) (CRAB C1 [4]; 50% human serum in MH medium, 16 h, 37 °C, measure of serum stability): 256 µg/mL
